Source: ChEMBL document CHEMBL2021870, “Saponins can perturb biologic membranes and reduce the surface tension of aqueous solutions: a correlation?” (Bioorg Med Chem, 2012)

How the values were obtained:
ECV-304 [1] = test: Cytotoxicity against human ECV304 cells after 72 hrs by Hoechst 33258 staining based fluorescence assay; assay type: functional, cell-based; settings: ECV-304, 72 h
[2] = Reduction in surface tension in 0.1 M PBS after 10 mins by Wilhelmy plate method using tensitometer; assay type: physicochemical
[3] = Critical micellar concentration of the compound in 0.1 M PBS after 10 mins by Wilhelmy plate method using tensitometer; assay type: physicochemical; settings: buffer
ECV-304 [4] = test: Membranolytic activity in human ECV304 cells assessed as leakage of intracellular lactate dehydrogenase after 2 hrs by spectrophotometry; assay type: functional, cell-based; settings: ECV-304, 2 h

Row | Compound | IC50 (ECV-304 [1]) | EC50 at 10 min [2] | CMC [3] | IC50 (ECV-304 [4])
1 | C[C@@H]1O[C@@H](O[C@H]2[C@H](O[C@H]3CC[C@@]4(C)[C@@H](CC[C@]5(C)[C@@H]4CC=C4[C@@H]6CC(C)(C)CC[C@]6(C(=O)O[C@@H]6O[C@H](CO[C@@H]7O[C@H](CO)[C@@H](O[C@@H]8O[C@@H](C)[C@H](O)[C@@H](O)[C@H]8O)[C@H](O)[C@H]7O)[C@@H](O)[C@H](O)[C@H]6O)CC[C@]45C)[C@]3(C)CO)OC[C@H](O)[C@@H]2O)[C@H](O)[C@H](O)[C@H]1O [KALOPANAXSAPONIN B] | > 164 µM | 10 µM | 82 µM | > 164 µM
2 | CC(C)=CCC[C@](C)(O)[C@H]1CC[C@]2(C)[C@@H]1[C@H](O)C[C@@H]1[C@@]3(C)CC[C@H](O)C(C)(C)[C@@H]3[C@@H](O[C@@H]3O[C@H](CO)[C@@H](O)[C@H](O)[C@H]3O[C@@H]3O[C@@H](C)[C@H](O)[C@@H](O)[C@H]3O)C[C@]12C [GINSENOSIDE RG2] | > 127 µM | 25 µM | > 127 µM | 783 µM
3 | CC[C@H](CC[C@@H](C)[C@H]1CC[C@H]2[C@@H]3CC=C4C[C@@H](O)CC[C@]4(C)[C@H]3CC[C@]12C)C(C)C [BETA-SITOSTEROL] | 61 µM | 19 µM | 241 µM | 472 µM
4 | CC1(C)[C@@H](O)CC[C@]2(C)[C@H]3C(=O)C=C4[C@@H]5C[C@@](C)(C(=O)O)CC[C@]5(C)CC[C@@]4(C)[C@]3(C)CC[C@@H]12 [ENOXOLONE] | 101 µM | 16 µM | 106 µM | 292 µM
5 | C[C@@H]1O[C@@H](O[C@H]2[C@H](O[C@H]3CC[C@@]4(C)[C@@H](CC[C@]5(C)[C@@H]4CC=C4[C@@H]6CC(C)(C)CC[C@]6(C(=O)O)CC[C@]45C)[C@]3(C)CO)OC[C@H](O)[C@@H]2O)[C@H](O)[C@H](O)[C@H]1O [ALPHA-HEDERIN] | 35 µM | 4 µM | 13 µM | 29 µM
6 | C[C@@H]1CC[C@@]2(OC1)O[C@H]1[C@@H](O)[C@H]3[C@@H]4CC[C@H]5C[C@@H](O[C@@H]6O[C@H](CO)[C@H](O[C@@H]7O[C@H](CO)C(O)[C@H](O[C@@H]8OC[C@@H](O)[C@H](O)[C@H]8O)[C@H]7O[C@@H]7O[C@H](CO)[C@H](O)[C@H](O[C@@H]8O[C@H](CO)[C@@H](O)[C@H](O)[C@H]8O)[C@H]7O)[C@H](O)[C@H]6O)[C@H](O)C[C@]5(C)[C@H]4CC[C@]3(C)[C@H]1[C@@H]2C (some centres undefined) [DIGITONIN] | 13 µM | 8 µM | 163 µM | 15 µM
